The values that follow come from article PMC4277729 (Bioorganic & medicinal chemistry letters, 2014).

Molecules are shown by their SMILES. In brackets after ≈: the same amount, converted by molar mass.

The target of one data set is chicken sEH (chxEH) (Gallus gallus, UniProt Q45QT1). Kind of data set: chxEH inhibition, fluorescent substrate PHOME. Type of data set: biochemical.
The nature of data set [1]: solubility by turbidity measurement at 600 nm. Type of data set: physicochemical. The following applies: sodium phosphate buffer, pH 7.4.
Data set [2] has as its target T1, chxEH (Gallus gallus, UniProt Q45QT1). Kind of data set: FRET-based competitive displacement assay with reporter ligand ACPU.
Data set [3] concerns the target T1, chxEH. Nature of the data set: kinetic constants of chxEH for epoxy-fatty acid substrate. It counts as biochemical, chicken. Particulars: chxEH's best substrate.
Setting [4] is: substrate of recombinant purified chicken sEH.

`O=C(O)CCCCCCCCCCCNC(=O)NC12CC3CC(CC(C3)C1)C2` [AUDA]: on chicken sEH (chxEH), the IC50 is 12 nM. Moreover, the solubility in data set [1] was 37.5 to 50 µM (≈ 14.7 to 19.6 µg/mL).

Take `O=C(NC1CCN(C(=O)Cc2cc(=O)oc3cc(O)ccc23)CC1)NC12CC3CC(CC(C3)C1)C2` [ACPU]: the Kd on chxEH [2] came to 0.283 nM.

As for `COc1ccc2cc(C(C#N)OC(=O)CC3OC3c3ccccc3)ccc2c1` (centres unmarked) [PHOME, (3-phenyl-oxiranyl)-acetic acid cyano-(6-methoxy-naphthalen-2-yl)-methyl ester], at chicken sEH (chxEH) (setting [4]), the Km was found to be 1.5 ± 0.3 µM and the maximum rate (Vmax) stood at 60 ± 4 nmol/min/mg.

Consider `CCC=CCC1OC1CC=CCC=CCC=CCC=CCCC(=O)O` (centres unmarked) [16,17-epoxy-docosapentaenoic acid], for which, at chxEH [3], the Michaelis constant (Km) is 12 ± 3 µM and the maximal velocity (Vmax) turned out to be 728 ± 97 nmol/min/mg.

Regarding `CCC(=O)N1CCC(NC(=O)Nc2ccc(OC(F)(F)F)cc2)CC1` [TPPU], the “inhibition of chxEH” value at chicken sEH (chxEH) (inhibitor 100 nM, chxEH 1.4 nM, primary screen, endpoint mode) is on record as 15%.

One may read the IC50 as the concentration that gives 50% inhibition. Read a low IC50 as inhibition by little substance. In general, solubility refers to the dissolved amount per volume that the medium holds. A lower solubility goes with little dissolved substance. Usually Kd stands for the concentration at which binding is half-saturated. Read a high Kd as weaker binding. The Km is the substrate concentration at which the rate is half of its maximum. As usually defined, the Vmax is the top rate of the reaction or transport when substrate is in excess.
